We go through 18 molecules from patent publication US8202902B2, “Bivalent SMAC mimetics and the uses thereof” (The Regents of the University of Michigan, priority 2006, dated 2012).

Residues, ends and D or L forms follow the SMILES beside them. *: point of attachment. Cbz = O=C(OCc1ccccc1)*; CH2F = FC*

The term IC50 denotes the point on the concentration scale where inhibition reaches its midpoint. For orientation: Kd means the constant that tells how readily two partners part at equilibrium.

Test [1] relates to cIAP-1 in cancer cell lines. The test can be described thus: Induction of cIAP-1 degradation in cancer cells. Type of test: cell-based. The settings on record: sensitive and resistant cancer cell lines.
Test [2] relates to XIAP, cIAP-1, and cIAP-2 proteins. Put plainly: Fluorescence-polarization based binding of control compounds to IAP proteins. The protocol:
Therefore binding affinities of Smac mimetics to cIAP-2 BIR3-only protein were evaluated.

Test [3] concerns the target T1, human XIAP protein (residues 120-356) (Homo sapiens, UniProt P98170).
T1 construct: human XIAP protein (residues 120-356) (10 nM)
Put plainly: Fluorescence-polarization-based binding assay to XIAP protein (Smac2-F tracer). To be noted: read-out: Binding to XIAP IC50 values. The protocol:
The polarization values were measured after 2 hours incubation, using the Ultra plate reader. […] Curve fitting is performed using GraphPad Prism® software.

Test [4] addresses T2, Recombinant XIAP containing linker-BIR2-BIR3 (residues 120-356) (Homo sapiens, UniProt P98170).
T2 construct: Recombinant XIAP containing linker-BIR2-BIR3 (residues 120-356)
Put plainly: Cell-free functional assay: antagonism of XIAP inhibition of caspase-3/-7. It is filed as biochemical. The settings on record: up to 100 μM.

For test [5], the system named is SK-OV-3. Put plainly: Cell growth inhibition, WST assay, SK-OV-3. It is filed as cell-based. To be noted: Homo sapiens. As for the experimental part: Cells were seeded in 96-well flat bottom cell culture plates at a density of 3000 cells/well with a tested compound and incubated at 37° C. in an atmosphere of 95% air and 5% CO2 for 4 days. The rate of cell growth inhibition after treatment with different concentrations of the compound was determined using a WST-8 kit (2-(2-methoxy-4-nitrophenyl)-3-(4-nitrophenyl)-5-(2, 4 disulfophenyl)-2H-tetrazolium monosodium salt; Dojindo Molecular Technologies, Inc., Gaithersburg, Md.). WST-8 was added at a final concentration of 10% to each well, and then the plates were incubated at 37° C. for 2-3 hrs. The absorbance of the samples was measured at 450 nm using a ULTRA Tecan Reader (Molecular Device).

The test system of test [6] is MDA-MB-231 human breast cancer cell line. The test can be described thus: Cell growth inhibition, WST-8 assay, MDA-MB-231. It is filed as cell-based. The settings on record: MDA-MB-231, read-out: IC50 values (nM) In WST-assay (MDA-MB-231). As for the experimental part:
(§1) The rate of cell growth inhibition after treatment with different concentrations of the compound was determined using a WST-8 kit (2-(2-methoxy-4-nitrophenyl)-3-(4-nitrophenyl)-5-(2, 4 disulfophenyl)-2H-tetrazolium monosodium salt; Dojindo Molecular Technologies, Inc., Gaithersburg, Md.). WST-8 was added at a final concentration of 10% to each well, and then the plates were incubated at 37° C. for 2-3 hrs. The absorbance of the samples was measured at 450 nm using a ULTRA Tecan Reader (Molecular Device).
A general note: Formazan colour is commonly taken as a measure of viable cells.

The target of test [7] is T3, XIAP BIR3 protein of human XIAP (residues 241-356) (Homo sapiens, UniProt P98170).
T3 construct: human XIAP (residues 241-356) fused to His-tag; His-tag
T3 sequence (P98170 241-356): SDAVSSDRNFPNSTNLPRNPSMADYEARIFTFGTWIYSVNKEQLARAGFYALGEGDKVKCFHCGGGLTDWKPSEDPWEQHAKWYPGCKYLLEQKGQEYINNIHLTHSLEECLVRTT
Put plainly: Fluorescence polarization (FP) based binding assay to XIAP BIR3. To be noted: read-out: Binding Affinities to XIAP BIR3 (IC50 [uM]). From the text: In order to test the binding ability of the bivalent Smac mimetics to IAP proteins, a sensitive and quantitative in vitro binding assay using the fluorescence polarization (FP) based method was developed and used to determine the binding affinity of Smac mimetics to XIAP protein (Nikolovska-Coleska et al., Anal Biochem. 332:261-73 (2004)). […] The recombinant XIAP BIR3 protein of human XIAP ([…]) fused to His-tag was stable and soluble, and was used for the FP based binding assay. The dose-dependent binding experiments were carried out with serial dilutions of the tested compounds in DMSO. […] Inc., Research Triangle Park, N.C.). […] Curve fitting was performed using […] PRISM software (GraphPad Software, Inc., San Diego, Calif.).
Background: Polarisation of emitted light reports the rotation of a fluorescent probe.

The subject of test [8] is MDA-MB-231 and SK-OV-3 cancer cell lines. The test can be described thus: Role of caspase-8, -3 and -9 (siRNA, caspase inhibitors) in activity of Smac mimetics. It is filed as cell-based. An excerpt:
To examine the role of caspase-8, -3 and -9 in apoptosis induction by Smac mimetics, siRNA was employed against these caspases in MDA-MB-231 and SK-OV-3 cancer cell lines.

The subject of test [9] is MDA-MB-231 xenograft model. Put plainly: Inhibition of tumor growth in the MDA-MB-231 xenograft model. It is filed as in vivo, mice. To be noted: 7.5 mg/kg. As for the experimental part: SM-164 was evaluated for its ability to inhibit tumor growth. […] Treatment with SM-164 at 5 mg/kg reduces the tumor volume from 147±54 mm^3 at the beginning of the treatment (day 25) to 54±32 mm^3 at the end of the treatment (day 36), a reduction of 65%. The strong antitumor activity by SM-164 is long lasting and not transient.

Test [10] relates to MDA-MB-231 (2LMP) breast cancer cells. The test can be described thus: Cell growth inhibition by TRAIL alone or with Smac mimetic, MDA-MB-231 (2LMP). Type of test: cell-based, human. As for the experimental part: as §1
(§2) To test the ability of bivalent Smac mimetics to sensitize cancer cells to the growth inhibiting effects of other agents, cell growth inhibition assays were carried out with various agents alone or in combination with increasing doses of bivalent Smac mimetics.

In test [11] the test system is PC-3 human prostate cancer cells. The test can be described thus: Cell growth inhibition by TRAIL alone or with Smac mimetic, PC-3. Type of test: cell-based. The protocol: as §1, §2
For test [12], the system named is MDA-MB-453 breast cancer cells. Put plainly: Cell growth inhibition by TRAIL alone or with Smac mimetic, MDA-MB-453. Type of test: cell-based. The protocol: as §1, §2
The target of test [13] is XIAP (Homo sapiens, UniProt P98170). To be noted: cited from earlier work.
Sequence of XIAP (P98170 whole entry): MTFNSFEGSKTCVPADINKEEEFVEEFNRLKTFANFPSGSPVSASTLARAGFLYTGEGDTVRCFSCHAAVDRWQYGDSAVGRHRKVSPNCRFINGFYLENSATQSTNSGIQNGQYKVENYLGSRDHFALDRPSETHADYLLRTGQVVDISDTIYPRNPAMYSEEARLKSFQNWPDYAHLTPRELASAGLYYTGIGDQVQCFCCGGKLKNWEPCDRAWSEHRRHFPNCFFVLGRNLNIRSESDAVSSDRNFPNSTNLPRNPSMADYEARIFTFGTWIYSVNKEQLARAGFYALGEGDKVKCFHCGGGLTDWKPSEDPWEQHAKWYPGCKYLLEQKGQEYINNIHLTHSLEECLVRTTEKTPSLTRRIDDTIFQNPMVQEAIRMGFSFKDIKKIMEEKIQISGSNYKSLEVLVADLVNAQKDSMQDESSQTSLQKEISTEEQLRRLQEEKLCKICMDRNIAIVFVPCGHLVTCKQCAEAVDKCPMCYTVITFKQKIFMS

T1 sequence (P98170 120-356): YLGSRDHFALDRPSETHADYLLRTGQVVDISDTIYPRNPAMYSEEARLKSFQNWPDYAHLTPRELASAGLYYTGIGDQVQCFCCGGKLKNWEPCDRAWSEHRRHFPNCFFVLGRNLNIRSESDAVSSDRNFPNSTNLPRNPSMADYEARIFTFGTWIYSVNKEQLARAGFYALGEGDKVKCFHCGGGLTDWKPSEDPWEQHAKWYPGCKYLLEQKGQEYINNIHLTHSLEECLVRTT
T2 sequence (P98170 120-356): as above

Take `CC(C)C[C@@H](C=O)NC(=O)[C@H](CC(C)C)NC(=O)[C@H](CC(C)C)NC(=O)OCc1ccccc1` [MG-132, reference compound] (Cbz-Leu-Leu-Leu-aldehyde): in [1], the “effect of proteasome inhibitor on cIAP-1 degradation by SM-122 and SM-164” value was “effectively blocked cIAP-1 degradation”. As for `CC(=O)NC(Cc1c[nH]c2ccccc12)C(=O)NC1CCCCC2CCC(C(=O)NC(c3ccccc3)c3cn(CCCCc4ccc(CCCCn5cc(C(NC(=O)C6CCC7CCCCC(NC(=O)C(Cc8c[nH]c9ccccc89)NC(C)=O)C(=O)N76)c6ccccc6)nn5)cc4)nn3)N2C1=O` (stereo not shown) [SH-173], the “less potent than SM-164 to these IAP proteins” value in test [2] is recorded as 1000 times. Further, the concentration for half-maximal inhibition (IC50) in test [3] is above 10000 nM. Besides, the “effect in the functional assay” value in test [4] is “minimal effect”. For the molecule `CN[C@@H](C)C(=O)N[C@H]1CCCC[C@H]2CC[C@@H](C(=O)N[C@@H](c3ccccc3)c3ccc(CCCNC(=S)NCCCc4ccc([C@@H](NC(=O)[C@@H]5CC[C@@H]6CCCC[C@H](NC(=O)[C@@H](C)NC)C(=O)N65)c5ccccc5)cc4)cc3)N2C1=O` [SH-189], the IC50 in test [3], in [5] and in test [6] was below 100 nM in each case. For the molecule `CN[C@@H](C)C(=O)N[C@H]1CCCC[C@H]2CC[C@@H](C(=O)N[C@@H](c3ccccc3)c3ccc(CCCCNC(=O)NCCCCc4ccc([C@@H](NC(=O)[C@@H]5CC[C@@H]6CCCC[C@H](NC(=O)[C@H](C)NC)C(=O)N65)c5ccccc5)cc4)cc3)N2C1=O` [SH-190], the IC50 is below 100 nM in test [3], below 10 nM in test [5] and below 10 nM in test [6]. With `CN[C@@H](C)C(=O)N[C@H]1CCCC[C@H]2CC[C@@H](C(=O)N[C@@H](c3ccccc3)c3cn(CCCCCOCCCCn4cc([C@@H](NC(=O)[C@@H]5CC[C@@H]6CCCC[C@H](NC(=O)[C@H](C)NC)C(=O)N65)c5ccccc5)nn4)nn3)N2C1=O` [SH-198], the half-maximal inhibitory concentration (IC50) is below 100 nM in test [3], below 10 nM in [5] and below 10 nM in test [6]. On to `CN[C@@H](C)C(=O)N[C@H]1CCCC[C@H]2CCC(C(=O)N[C@H](COCCCCCCCCCCCCOC[C@@H](NC(=O)[C@@H]3CC[C@@H]4CCCC[C@H](NC(=O)[C@H](C)NC)C(=O)N43)c3ccccc3)c3ccccc3)N2C1=O` (stereo partly shown) [SH-202], for which the IC50 in test [3] is below 100 nM; in test [5] it was below 10 nM; in [6], below 10 nM. Turning to `CN[C@@H](C)C(=O)N[C@H]1CN(C(=O)Cc2ccc(F)cc2)CC[C@H]2CC[C@@H](C(=O)NCc3ccc(F)cc3)N2C1=O` [SM-402], in test [7], the concentration for half-maximal inhibition (IC50) is below 0.1 µM.

As for `CN[C@@H](C)C(=O)N[C@H]1CN(C(=O)CCc2ccc(F)cc2)CC[C@H]2CC[C@@H](C(=O)NC(c3ccc(F)cc3)c3ccc(F)cc3)N2C1=O` [SM-404], in [7], the IC50 is below 0.1 µM. Consider `CN[C@@H](C)C(=O)N[C@H]1CN(C(=O)CC2CCCC2)CC[C@H]2CC[C@@H](C(=O)NC(c3ccccc3)c3ccccc3)N2C1=O` [SM-405], for which the half-maximal inhibitory concentration (IC50) in [7] is below 0.1 µM. The same measure, in the same setting: the result for `CN[C@@H](C)C(=O)N[C@H]1CN(C(=O)CC(C)C)CC[C@H]2CC[C@@H](C(=O)NC(c3ccccc3)c3ccccc3)N2C1=O` [SM-406] reads below 0.1 µM; that for `CN[C@@H](C)C(=O)N[C@H]1CN(C(=O)CCc2ccc(F)cc2)CC[C@H]2CC[C@@H](C(=O)NC(c3ccccc3)c3ccccc3)N2C1=O` [SM-407], below 0.1 µM; that for `CN[C@@H](C)C(=O)N[C@H]1CN(C(=O)CCc2ccccc2)CC[C@H]2CC[C@@H](C(=O)NC(c3ccccc3)c3ccccc3)N2C1=O` [SM-408], below 0.1 µM. On the same count and under the same terms, the result for `CCCC(=O)N1CC[C@H]2CC[C@@H](C(=O)NC(c3ccccc3)c3ccccc3)N2C(=O)[C@@H](NC(=O)[C@H](C)NC)C1` [SM-409] reads below 0.1 µM. Regarding `COC(=O)CC[C@H](NC(=O)[C@H](CC(=O)OC)NC(=O)OCc1ccccc1)C(=O)N[C@H](C(=O)N[C@@H](CC(=O)OC)C(=O)CF)C(C)C` [Z-DEVD-FMK, reference compound], the “effect of caspase inhibitor on the activity of both Smac mimetics (SM-164, SM-122)” value in test [8] was “markedly inhibited”. Same read-out and setting: the entry for `CC[C@H](C)[C@H](NC(=O)OCc1ccccc1)C(=O)N[C@@H](CCC(=O)OC)C(=O)N[C@H](C(=O)N[C@@H](CC(=O)OC)C(=O)CF)[C@@H](C)O` [Z-IETD-FMK, reference compound] (Cbz-IE(OMe)TD(OMe)-CH2F) is “markedly inhibited”. For `CC(=O)O[C@@]12CO[C@@H]1C[C@H](O)[C@@]1(C)C(=O)[C@H](O)C3=C(C)[C@@H](OC(=O)[C@H](O)[C@@H](NC(=O)OC(C)(C)C)c4ccccc4)C[C@@](O)([C@@H](OC(=O)c4ccccc4)[C@H]21)C3(C)C` [taxotere, reference compound], in test [9], the “inhibition of tumor growth compared to control” value is “effective in inhibition of tumor growth” and the tumor regression result is recorded as “failed to achieve tumor regression”.

Turning to “TRAIL: tumor necrosis factor-related apoptosis-inducing ligand”, the “IC50 of TRAIL alone” value in test [10] is 2.2 ng/mL; in test [11], above 300 ng/mL; in test [12], above 1000 ng/mL.

B1: mature Smac protein: mature Smac protein, endogenous inhibitor of XIAP (protein, UniProt Q9NR28 22-239, looked up)
Diablo IAP-binding …: LCVPVVANFKKRCFSELIRPWHKTVTIGFGVTLCAVPIAQKSEPHSLSSEALMRRAVSLVTDSTSTFLSQTTYALIEAITEYTKAVYTLTSLYRQYTSLLGKMNSEEEDEVWQVIIGARAEMTSKHQEYLKLETTWMTAVGLSEMAAEAAYQTGADQASITARNHIQLVKLQVEEVHQLSRKAETKLAEAQIEELRQKTQEEGEERAESEQEAYLRED
For B1, the Kd in test [13] was 420 nM.
